Test results reported in the NIST ThermoML archive (doi:10.1016/j.jct.2016.04.014).

Assay: xn = mol fraction of the nth substance listed
Conditions: Liquid, Vibrating tube method

CCCCCCCC [octane] + CCO
mass density [kg/m3]
Conditions	100 kPa	500 kPa	5000 kPa	10000 kPa	15000 kPa	20000 kPa	25000 kPa	30000 kPa	35000 kPa	40000 kPa
293.15 K, x1 = 0.2492	743.9	744.3	748.2	752.3	756.2	759.9	763.4	766.8	770	773.2
293.15 K, x1 = 0.4999	722.3	722.6	726.5	730.6	734.4	738.1	741.6	744.9	748.1	751.2
293.15 K, x1 = 0.7503	709.6	709.9	713.7	717.7	721.5	725.1	728.6	731.9	735	738.1
303.15 K, x1 = 0.2492	735.3	735.7	739.8	744.2	748.3	752.2	755.9	759.5	762.9	766.2
303.15 K, x1 = 0.4999	713.7	714.1	718.3	722.6	726.7	730.6	734.2	737.7	741.1	744.3
303.15 K, x1 = 0.7503	701.2	701.5	705.6	709.9	713.9	717.8	721.4	724.9	728.2	731.4
313.15 K, x1 = 0.2492	726.5	726.9	731.3	736	740.4	744.5	748.4	752.1	755.7	759.1
313.15 K, x1 = 0.4999	705	705.4	709.8	714.5	718.8	722.9	726.8	730.5	734	737.4
313.15 K, x1 = 0.7503	692.6	693	697.4	702	706.3	710.3	714.1	717.8	721.2	724.6
323.15 K, x1 = 0.2492	717.4	717.9	722.6	727.6	732.2	736.6	740.7	744.6	748.4	752
323.15 K, x1 = 0.4999	696	696.4	701.2	706.1	710.8	715.1	719.2	723.1	726.8	730.4
323.15 K, x1 = 0.7503	683.8	684.2	688.9	693.8	698.4	702.7	706.8	710.6	714.2	717.8
333.15 K, x1 = 0.2492	708.2	708.6	713.7	719.1	724	728.6	733	737.1	741	744.8
333.15 K, x1 = 0.4999	686.8	687.3	692.4	697.7	702.7	707.3	711.6	715.7	719.6	723.4
333.15 K, x1 = 0.7503	674.8	675.3	680.4	685.6	690.5	695.1	699.3	703.4	707.2	710.9
353.15 K, x1 = 0.2492	–	689	695	701.1	706.8	712	716.9	721.5	725.8	730
353.15 K, x1 = 0.4999	–	667.9	674	680.2	685.8	691.1	695.9	700.5	704.8	709
353.15 K, x1 = 0.7503	–	656.6	662.6	668.7	674.3	679.5	684.3	688.7	693	697.1
373.15 K, x1 = 0.2492	–	667.6	674.8	682	688.6	694.6	700.1	705.2	710	714.6
373.15 K, x1 = 0.4999	–	647.2	654.4	661.7	668.3	674.3	679.8	684.9	689.7	694.3
373.15 K, x1 = 0.7503	–	637	644.1	651.2	657.7	663.6	669	674	678.7	683.2
